Where two headings read alike, the source gives them in different places.
Key:
Dermacentor variabilis = experiment: Contact activity against larval American dog tick (coated vial)
Procedure: This test is designed to evaluate the contact activity of test compounds against the American dog tick. Test compounds are dissolved in 100% acetone to 1000, 300, 100, 10, 1 and 0.1 ppm. 100 µL of each of these dilutions is added to the bottom of a 20 mL glass scintillation vial with a pipettor. The vial is allowed to dry under a fume hood for 15 minutes. The vial is then turned in its side, and 250 µL of each dilution is applied to the sides of the vial. The vial is placed on a rolling machine and allowed to roll under the hood, coating the sides of the vial, until the acetone completely evaporates. The bottom of the vial measures 4.909 cm^2 and the sides measure 4.5 cm high x 8.8 cm around, so that the total coated area of the scintillation vial measures 44.51 cm^2. The amount of test compound applied by each dilution equals 7.86, 2.36, 0.79, 0.079, 0.0079 and 0.00079 µg/cm^2, respectively. Unfed larval dog ticks are counted into the scintillation vials with a slightly damp paintbrush. Ten ticks are placed in each vial. These tests are done in replicates of two or three so that there are 20 to 30 ticks per rate/compound. Mortality readings are taken 4 and 24 hours after placing the ticks in the vials. To read the test, the vial is placed under a magnifying glass and tapped gently. […] Percent mortality is then calculated for each treatment.

Bovicola spp. = experiment: Coated vial test against adult biting louse; details: for mortality at 2 µg/cm2: dose 2.0 µg/cm^2; for mortality at 6.1 µg/cm2: dose 6.1 µg/cm^2
Procedure: This test is designed to evaluate the activity of test compounds against the biting louse. Test compounds are dissolved in 100% acetone to 300, 100 and 10 ppm. 100 µL of each of these dilutions is added to the bottom of a 20 mL glass scintillation vial with a pipettor. The vial is allowed to dry under a fume hood for 15 minutes. The bottom of the vial measures 4.909 cm^2. The amount of test compound applied by each dilution equals 6.1, 2.0 and 0.2 µg/cm^2, respectively. Included in all tests are two to three replications of untreated vials. Lice are collected from the host animal and are used within 4 hours. The lice are counted into the scintillation vials with a slightly damp paintbrush. Five adult lice are placed in each vial. These tests are done in replicates of two or three so that there are 10 to 15 lice per rate/compound. Mortality readings are taken at 2 and 4 hours after placing the lice in the vials. To read the test, the vial is placed under a magnifying glass. […] Percent mortality is then calculated for each treatment.

Ctenocephalides felis = experiment: Contact activity against adult cat flea, with and without piperonyl butoxide
Procedure: This test is designed to evaluate the contact activity of test compounds against the adult cat flea. Test compounds are dissolved in 100% acetone to 300, 100, 10 and 1 ppm. 100 µL of each of these dilutions is added to the bottom of a 20 mL glass scintillation vial with a pipettor. The vial is allowed to dry under a fume hood for 15 minutes. The bottom of the vial measures 4.909 cm^2. The amount of test compound applied by each dilution equals 6.2, 2.0, 0.2 and 0.02 µg/cm^2, respectively. Newly emerged adult cat fleas are anesthetized with CO2 to immobilize, and are counted into the scintillation vials with forceps. Five fleas are placed in each vial. These tests are done in replicates of two or three so that there are 10 to 15 fleas per rate/compound. Mortality readings are taken 4 and 24 hours after placing the fleas in the vials. […] Percent mortality is then calculated for each treatment.
This test evaluates the synergistic effect of piperonyl butoxide on the formula I compounds of this invention. Piperonyl butoxide (PBO) is added in an amount of 1.5% to a 1,000 ppm solution of a test compound in acetone. Dilutions are then made with acetone to provide solutions containing 300, 100, 10 and 1 ppm of the test compound and 0.45%, 0.15%, 0.015% and 0.0015% piperonyl butoxide, respectively. Solutions containing 1,000, 300, 100, 10 and 1 ppm of the test compound alone are used as the control. The evaluations are conducted according to the procedure described in Example 1.

[1] = test system: ovine Trichstrongylus colubriformis larvae; experiment: Systemic activity against helminth larvae in infected Mongolian gerbils (medicated diet); format: in vivo; details: 500 ppm in feed; medicated diet for 3 days from ten days post infection; nematode burdens treated versus non-treated
Procedure: This test is designed to evaluate the systemic activity of test compounds against helminth parasites. Mongolian gerbils are infected orally with ovine Trichstrongylus colubrifomis larvae. Ten days post infection, the gerbils are treated with test compounds by diet incorporation. After feeding on the medicated diet for 3 days, the gerbils are sacrificed and gastrointestinal nematode populations are counted. Efficacy is determined by statistical analyses of treated versus non-treated nematode burdens.

[2] = 4 h, read-out: 4 Hour % Mortality
[3] = 24 h, read-out: 24 Hour % Mortality
[4] = 2 hours, read-out: 2 Hour % Mortality
[5] = 4 hours, read-out: 4 Hour % Mortality

`F/C(=C\Cc1ccc(F)c(Oc2ccccc2)c1)C(c1ccc(Cl)cc1)C1CC1` (stereo not shown) [Compound 5, 1-[1-(p-Chlorophenyl)-2-fluoro-4-(4-fluoro-3-phenoxyphenyl)-2-butenyl]cyclopropane, (Z)-] was tested, and the mortality at 0.00079 µg/cm2 (Dermacentor variabilis; [2]) was 100%, the mortality at 0.0079 µg/cm2 (Dermacentor variabilis; [2]) was 100% and the mortality at 0.079 µg/cm2 (Dermacentor variabilis; [2]) was 100%. It also gave a mortality at 0.79 µg/cm2 (Dermacentor variabilis; [2]) of 100%, a mortality at 2.36 µg/cm2 (Dermacentor variabilis; [2]) of 100% and a mortality at 7.86 µg/cm2 (Dermacentor variabilis; [2]) of 100%. It also gave a mortality at 0.00079 µg/cm2 (Dermacentor variabilis; [3]) of 100%, a mortality at 0.0079 µg/cm2 (Dermacentor variabilis; [3]) of 100% and a mortality at 0.079 µg/cm2 (Dermacentor variabilis; [3]) of 100%. It also gave a mortality at 0.79 µg/cm2 (Dermacentor variabilis; [3]) of 100%, a mortality at 2.36 µg/cm2 (Dermacentor variabilis; [3]) of 100% and a mortality at 7.86 µg/cm2 (Dermacentor variabilis; [3]) of 100%. For the same compound, the mortality at 2 µg/cm2 (Bovicola spp.; [4]) was 92%, the mortality at 2 µg/cm2 (Bovicola spp.; [5]) was 100% and the mortality at 6.1 µg/cm2 (Bovicola spp.; [4]) was 100%. It also gave a mortality at 6.1 µg/cm2 (Bovicola spp.; [5]) of 100%, a mortality at 0.02 µg/cm2 (Ctenocephalides felis; 4 h, dose 0.02 µg/cm^2, 0.0 % PBO (test compound alone), 4 hours, read-out: 4 Hour % Mortality) of 0% and a mortality at 0.02 µg/cm2 (Ctenocephalides felis; 4 h, dose 0.02 µg/cm^2, 0.0015 % PBO in composition, 4 hours, read-out: 4 Hour % Mortality) of 0%. For the same compound, the mortality at 0.2 µg/cm2 (Ctenocephalides felis; 4 h, dose 0.2 µg/cm^2, 0.0 % PBO (test compound alone), 4 hours, read-out: 4 Hour % Mortality) was 20%, the mortality at 0.2 µg/cm2 (Ctenocephalides felis; 4 h, dose 0.2 µg/cm^2, 0.015 % PBO in composition, 4 hours, read-out: 4 Hour % Mortality) was 40% and the mortality at 2 µg/cm2 (Ctenocephalides felis; 4 h, dose 2.0 µg/cm^2, 0.0 % PBO (test compound alone), 4 hours, read-out: 4 Hour % Mortality) was 30%. The mortality at 2 µg/cm2 (Ctenocephalides felis; 4 h, dose 2.0 µg/cm^2, 0.15 % PBO in composition, 4 hours, read-out: 4 Hour % Mortality) was 20%, the mortality at 6.2 µg/cm2 (Ctenocephalides felis; 4 h, dose 6.2 µg/cm^2, 0.0 % PBO (test compound alone), 4 hours, read-out: 4 Hour % Mortality) was 30% and the mortality at 6.2 µg/cm2 (Ctenocephalides felis; 4 h, dose 6.2 µg/cm^2, 0.45 % PBO in composition, 4 hours, read-out: 4 Hour % Mortality) was 20%. For the same compound, the mortality at 20 µg/cm2 (Ctenocephalides felis; 4 h, dose 20.0 µg/cm^2, 0.0 % PBO (test compound alone), 4 hours, read-out: 4 Hour % Mortality) was 100%, the mortality at 20 µg/cm2 (Ctenocephalides felis; 4 h, dose 20.0 µg/cm^2, 1.50 % PBO in composition, 4 hours, read-out: 4 Hour % Mortality) was 100% and the mortality at 0.02 µg/cm2 (Ctenocephalides felis; 24 h, dose 0.02 µg/cm^2, 0.0 % PBO (test compound alone), 24 hours, read-out: 24 Hour % Mortality) was 10%. It also gave a mortality at 0.02 µg/cm2 (Ctenocephalides felis; 24 h, dose 0.02 µg/cm^2, 0.0015 % PBO in composition, 24 hours, read-out: 24 Hour % Mortality) of 70%, a mortality at 0.2 µg/cm2 (Ctenocephalides felis; 24 h, dose 0.2 µg/cm^2, 0.0 % PBO (test compound alone), 24 hours, read-out: 24 Hour % Mortality) of 20% and a mortality at 0.2 µg/cm2 (Ctenocephalides felis; 24 h, dose 0.2 µg/cm^2, 0.015 % PBO in composition, 24 hours, read-out: 24 Hour % Mortality) of 100%. It also gave a mortality at 2 µg/cm2 (Ctenocephalides felis; 24 h, dose 2.0 µg/cm^2, 0.0 % PBO (test compound alone), 24 hours, read-out: 24 Hour % Mortality) of 100%, a mortality at 2 µg/cm2 (Ctenocephalides felis; 24 h, dose 2.0 µg/cm^2, 0.15 % PBO in composition, 24 hours, read-out: 24 Hour % Mortality) of 100% and a mortality at 6.2 µg/cm2 (Ctenocephalides felis; 24 h, dose 6.2 µg/cm^2, 0.0 % PBO (test compound alone), 24 hours, read-out: 24 Hour % Mortality) of 100%. The mortality at 6.2 µg/cm2 (Ctenocephalides felis; 24 h, dose 6.2 µg/cm^2, 0.45 % PBO in composition, 24 hours, read-out: 24 Hour % Mortality) was 100%, the mortality at 20 µg/cm2 (Ctenocephalides felis; 24 h, dose 20.0 µg/cm^2, 0.0 % PBO (test compound alone), 24 hours, read-out: 24 Hour % Mortality) was 100% and the mortality at 20 µg/cm2 (Ctenocephalides felis; 24 h, dose 20.0 µg/cm^2, 1.50 % PBO in composition, 24 hours, read-out: 24 Hour % Mortality) was 100%. The “% Efficacy” value [1] was 46%.

Reference: patent publication EP0933027A1, “Methods and compositions for protecting animals and humans against attack and infestation by arthropod and helminth parasites” (American Cyanamid Company, priority 1998, dated 1999)
